Test results: US20140357487A1, “PLANTS HAVING INCREASED TOLERANCE TO HERBICIDES” (BASF SE, priority 2011, published 2014)

Key:
Blepharisma HPPD = assay: HPPD activity assay, Blepharisma HPPD; format: biochemical; settings: normalized on Arabidopsis wild-type HPPD
Procedure: (§1) HPPD produces homogentisic acid and CO2 from 4-hydroxyphenylpyruvate (4-HPP) and O2. The activity assay for HPPD is based on the analysis of homogentisic acid by reversed phase HPLC.
(§2) The assay mixture can contain 150 mM potassium phosphate buffer pH 7.0, 50 mM L-ascorbic acid, 1 μM FeSO4 and 7 μg of purified enzyme in a total volume of 1 ml.
(§3) Inhibitors are dissolved in DMSO (dimethylsulfoxide) to a concentration of 20 mM or 0.5 mM, respectively. From this stock solution serial five-fold dilutions are prepared in DMSO, which are used in the assay. The respective inhibitor solution accounts for 1% of the assay volume. […]
(§4) Activities are normalized by setting the uninhibited enzyme activity to 100%. IC50 values are calculated using non-linear regression. […]
(§5) Inhibitors are dissolved in DMSO (dimethylsulfoxide) to a concentration of 0.5 mM. […] IC50 values are calculated using non-linear regression.
(§6) Using methods which are described in the above examples or well known in the art, purified, recombinant wildtype HPPD enzymes are characterized with respect to their kinetic properties and sensitivity towards HPPD inhibiting herbicides. Apparent michaelis constants (Km) and maximal reaction velocities (Vmax) are calculated by non-linear regression with the software GraphPad Prism 5 (GraphPad Software, La Jolla, USA) using a substrate inhibition model. […]

Chlamydomonas HPPD1 = assay: HPPD activity assay, Chlamydomonas HPPD1; format: biochemical, Chlamydomonas reinhardtii; settings: normalized on Arabidopsis wild-type HPPD
Procedure: as §1, §2
(§7) Inhibitors are dissolved in DMSO (dimethylsulfoxide) to a concentration of 20 mM or 0.5 mM, respectively. From this stock solution serial five-fold dilutions are prepared in DMSO, which are used in the assay. The respective inhibitor solution accounts for 1% of the assay volume. Thus, final inhibitor concentrations range from 200 μM to 2.5 nM or from 5 μM to 63 pM, respectively. After a preincubation of 30 min the reaction is started by adding 4-HPP to a final concentration of 0.1 mM. The reaction is allowed to proceed for 120 min at room temperature. The reaction is stopped by addition of 100 μl of 4.5 M phosphoric acid.
(§8) Activities are normalized by setting the uninhibited enzyme activity to 100%. IC50 values are calculated using non-linear regression.
(§9) The assay mixture can contain 150 mM potassium phosphate buffer pH 7.0, 50 mM L-ascorbic acid, 100 μM Catalase (Sigma-Aldrich), 1 μM FeSO4 and 0.2 units of purified HPPD enzyme in a total volume of 505 μl. […]
as §5
(§10) Using methods which are described in the above examples or well known in the art, purified, recombinant wildtype HPPD enzymes are characterized with respect to their kinetic properties and sensitivity towards HPPD inhibiting herbicides. Apparent michaelis constants (Km) and maximal reaction velocities (Vmax) are calculated by non-linear regression with the software GraphPad Prism 5 (GraphPad Software, La Jolla, USA) using a substrate inhibition model. […] Weighted means (by standard error) of Km and […] values are calculated from at least three independent experiments. […]

Kordia HPPD = assay: HPPD activity assay, Kordia HPPD; format: biochemical; settings: normalized on Arabidopsis wild-type HPPD
Procedure: as §1, §2, §3, §4, §5, §6

Sorghum HPPD = assay: HPPD activity assay, Sorghum HPPD; format: biochemical; settings: normalized on Arabidopsis wild-type HPPD
Procedure: as §1, §2, §7, §8, §9, §5, §10

[1] = tested on: transgenic soybean plants, Arabidopsis M335H, event SDS-9977; assay: Greenhouse testing of transgenic soybean plants, Arabidopsis M335H; format: in vivo, Glycine max; settings: soybean SDS-9977, 5 days after herbicide treatment, average of 8 T1
Description: Various methods for the production of stably transformed plants are well known in the art. Coumarone-derivative herbicide tolerant soybean (Glycine max) or corn (Zea mays) plants can be produced by a method described by Olhoft et al. (US patent 2009/0049567). Briefly, HPPD or HST encoding polynucleotides are cloned into a binary vector using standard cloning techniques as described by Sambrook et al. (Molecular cloning (2001) Cold Spring Harbor Laboratory Press). The final vector construct contains an HPPD or HST encoding sequence flanked by a promoter sequence (e.g. the ubiquitin promoter (PcUbi) sequence) and a terminator sequence (e.g. the nopaline synthase terminator (NOS) sequence) and a resistance marker gene cassette (e.g. AHAS) (FIG. 2). Optionally, the HPPD or HST gene can provide the means of selection. Agrobacterium-mediated transformation is used to introduce the DNA into soybean's axillary meristem cells at the primary node of seedling explants. After inoculation and co-cultivation with Agrobacteria, the explants are transferred to shoot induction medium without selection for one week. The explants are subsequently transferred to shoot induction medium with 1-3 μM imazapyr (Arsenal) for 3 weeks to select for transformed cells. Explants with healthy callus/shoot pads at the primary node are then transferred to shoot elongation medium containing 1-3 μM imazapyr until a shoot elongates or the explant dies. After regeneration, transformants are transplanted to soil in small pots, placed in growth chambers (16 hr day/8 hr night; 25° C. day/23° C. night; 65% relative humidity; 130-150 mE m−2 s−1) and subsequently tested for the presence of the T-DNA via Taqman analysis. After a few weeks, healthy, transgenic positive, single copy events are transplanted to larger pots and allowed to grow in the growth chamber. Transformation of corn plants is done by a method described by McElver and Singh (WO 2008/124495). Plant transformation vector constructs containing HPPD or HST sequences are introduced into maize immature embryos via Agrobacterium-mediated transformation. Transformed cells are selected in selection media supplemented with 0.5-1.5 μM imazethapyr for 3-4 weeks. Transgenic plantlets are regenerated on plant regeneration media and rooted afterwards. Transgenic plantlets are subjected to TaqMan analysis for the presence of the transgene before being transplanted to potting mixture and grown to maturity in greenhouse. Arabidopsis thaliana is transformed with HPPD or HST sequences by floral dip method as described by McElver and Singh (WO 2008/124495). Transgenic Arabidopsis plants are subjected to Tag Man analysis for analysis of the number of integration loci. Transformation of Oryza sativa (rice) are done by protoplast transformation as described by Peng et al. (U.S. Pat. No. 6,653,529)
Transgenic plants expressing heterologous HPPD or HST enzymes are tested for tolerance against coumarone-derivative herbicides in greenhouse experiments.
For post emergence treatment, the test plants are first grown to a height of 3 to 15 cm, depending on the plant habit, and only then treated with the herbicides. For this purpose, the test plants are either sown directly and grown in the same containers, or they are first grown separately and transplanted into the test containers a few days prior to treatment.
Depending on the species, the plants are kept at 10-25° C. or 20-35° C. The test period extends over 3 weeks. During this time, the plants are tended and their response to the individual treatments is evaluated. […] Tolerance to coumarone-derivative herbicides can also be assessed in Arabidopsis. In this case transgenic Arabidopsis thaliana plants are assayed for improved tolerance to coumarone-derivative herbicides in 48-well plates. Seeds are surface sterilized by stirring for 5 min in ethanol+water (70+30 by volume), rinsing one time with ethanol+water (70+30 by volume) and two times with a sterile, deionized water. […]

Compound	Normalized tolerance index TI (Blepharisma HPPD)	Normalized tolerance index TI (Chlamydomonas HPPD1)	Normalized tolerance index TI (Kordia HPPD)	Normalized tolerance index TI (Sorghum HPPD)	Injury evaluation, scale of 1-100, bleaching phenotype ([1]; 2.5 g/ha)	Injury evaluation, scale of 1-100, bleaching phenotype ([1]; 10 g/ha)	Injury evaluation, scale of 1-100, bleaching phenotype ([1]; 40 g/ha)	Injury evaluation, scale of 1-100, bleaching phenotype ([1]; 6.25 g/ha)	Injury evaluation, scale of 1-100, bleaching phenotype ([1]; 25 g/ha)	Injury evaluation, scale of 1-100, bleaching phenotype ([1]; 100 g/ha)
CC1=NOC(c2c(Cl)ccc(C3=C(O)c4ncccc4C(C)(C)S3(=O)=O)c2Cl)C1 (centres unmarked) [Inhibitor 1, 7-[2,4-dichloro-3-(3-methyl-4,5-dihydroisoxazol-5-yl)phenyl]-5,5-dimethyl-6,6-dioxo-thiopyrano[4,3-b]pyridin-8-ol]	12.4	2.1	22	2.1						
CC1(C)c2cccnc2C(O)=C(c2ccc(Cl)nc2Cl)S1(=O)=O [Inhibitor 2, 7-(2,6-dichloro-3-pyridyl)-5,5-dimethyl-6,6-dioxo-thiopyrano[4,3-b]pyridin-8-ol]				1.2	1	1	5			
COCCOCc1c(Cl)ccc(C2=C(O)c3ncccc3C(C)(C)S2(=O)=O)c1Cl [Inhibitor 3, 7-[2,4-dichloro-3-(2-methoxyethoxymethyl)phenyl]-5,5-dimethyl-6,6-dioxo-thiopyrano[4,3-b]pyridin-8-ol]	0.5	0.1	0.7							
Cc1c(C(=O)c2cnn(C)c2O)ccc(S(C)(=O)=O)c1C1=NOCC1 [Topramezone, reference compound]								8	4	15
